Results as given in BindingDB's records for aid1799748 (Csar, 2012).

Target: Urokinase-type plasminogen activator (Homo sapiens, UniProt P00749)
Assay: Abbott uPA__Urokinase Human - Ki(uM)
Conditions: pH 7.4; 25 °C

SMILES | Ki
Nc1cc2ccccc2cn1 | > 30 µM
COc1cc2ccc(C(=N)N)cc2c(OC)c1OC [uPa_2] | 8.03 µM
COc1ccc2ccc(C(=N)N)cc2c1-c1cnn(C(C)C)c1 [uPa_11] | 4.5 µM
N=C(N)c1ccc2cc(NS(=O)(=O)c3ccccc3)ccc2c1 [uPa_14] | 8.7 µM
CS(=O)(=O)n1cc(-c2cc(C(=O)Nc3ccccc3)cc3ccc(C(=N)N)cc23)cn1 [uPa_20] | 0.769 µM
COC(=O)Nc1ccc2nc(N)ccc2c1 [uPa_24] | > 50 µM
N=C(N)c1ccc2cc(C#Cc3cccc(OC4CCCC4)c3)ccc2c1 [uPa_25] | 0.665 µM
COC(=O)Nc1ccc2nc(C(=N)N)ccc2c1 [uPa_27] | > 50 µM
N=C(N)c1ccc2cc(C(=O)Nc3ccc4c(c3)C(c3ccccc3)=NCC4)ccc2c1 [uPa_29] | 0.29 µM
CC(C)CN(CC(C)C)C(=O)c1ccc2ccc(N)nc2c1 [uPa_34] | > 100 µM
CN(CC#N)C(=O)c1ccc2ccc(N)nc2c1 [uPa_35] | > 100 µM
CS(=O)(=O)Nc1cc(CCc2ccccc2)cc2ccc(C(=N)N)cc12 [uPa_37] | 1.49 µM
CC(C)C1c2cc(C3CC3c3cc(/C=C/C4CC4)c4cc(C(=N)N)ccc4c3)ccc2CCN1C (stereo not drawn) [uPa_43] | 0.009 µM
CN1CCc2ccc(C3CC3c3ccc4cc(C(=N)N)ccc4c3)cc2C1c1cccnc1 (stereo not drawn) [uPa_44] | 1.25 µM

Further lines, results first:

Ki | SMILES
> 50 µM | Nc1cnc2ccccc2n1 [uPa_1]
7.28 µM | CC(C)Oc1ccc2cc(C(=N)N)ccc2c1 [uPa_5]
> 40 µM | N#CC(CCOc1cccc2ccc(N)nc12)(c1ccccc1)c1ccccc1 [uPa_16]
0.0009 µM | COC(=O)Nc1cc(C(=O)Nc2ccc(CN)cc2)cc2ccc(C(=N)N)cc12 [uPa_17]
7.85 µM | N=C(N)c1ccc2cc(C(=O)Nc3ccccc3)cc(-c3ncccn3)c2c1 [uPa_21]
3.57 µM | N=C(N)NC(=O)c1nc(Cl)c(NCc2cc(Cl)cc(Cl)c2)nc1N [uPa_22]
> 104 µM | Nc1ccc2nc(N)ccc2c1 [uPa_23]
0.016 µM | CC(C)C1=NCCc2ccc(NC(=O)c3cc(Br)c4cc(C(=N)N)ccc4c3)cc21 [uPa_26]
0.033 µM | COc1cc(NC(=O)c2ccc3cc(C(=N)N)ccc3c2)cc(OC(C)C)c1 [uPa_28]
> 10 µM | C=CCNC(=O)Nc1cccc2ccc(N)nc12 [uPa_30]
0.066 µM | N=C(N)c1ccc2cc(C(=O)Nc3ccc4c(c3)C(C3CCCCC3)=NCC4)ccc2c1 [uPa_31]
3.08 µM | N=C(N)c1ccc2cc(/C=C/CCc3cccnc3)cc(Br)c2c1 [uPa_32]
> 100 µM | C#CCN(C)C(=O)c1ccc2ccc(N)nc2c1 [uPa_33]
0.018 µM | COC(=O)Nc1cc(C(=O)Nc2ccccc2)cc2ccc(C(=N)N)cc12 [uPa_36]
0.777 µM | CCOc1cc(OCC)c(OCC)cc1/C=C/c1cc(Br)c2cc(C(=N)N)ccc2c1 [uPa_38]
0.223 µM | CN1CCc2ccc(/C=C/c3ccc4cc(C(=N)N)ccc4c3)cc2C1C1CCCCC1 (stereo not drawn) [uPa_40]
0.042 µM | CN1CCc2ccc(C3CC3c3ccc4cc(C(=N)N)ccc4c3)cc2C1C1CCC1 (stereo not drawn) [uPa_41]
0.094 µM | COc1cc(C2CC2c2ccc3c(c2)C(C(C)C)N(C)CC3)cc2ccc(C(=N)N)cc12 (stereo not drawn) [uPa_42]
> 100 µM | N=C(N)NC(=O)c1ccc(Cl)c(S(N)(=O)=O)c1 [uPa_45]
